These are literature values, as cited in US20260263387A1, “INTRANASAL EPINEPHRINE FORMULATIONS AND METHODS OF USE” (ARS Pharmaceuticals Operations, Inc., priority 2024, published 2026).

Consider `CNC[C@H](O)c1ccc(O)c(O)c1` [epinephrine, (R)-4-(1-Hydroxy-2-(methylamino)ethyl)benzene-1,2-diol], for which the “blood level of epinephrine” value (intranasal dose level of 2.5 mg and below (0.3 mg, 0.6 mg, 1.25 mg, or 2.5 mg)) is “no blood level”. The “significant systemic absorption of epinephrine via the IN route” value (intranasal, Srisawat) was “observed only at 5 mg”.
